Bounds are passed on as bounds.

What is called melting point is the temperature, or range, at which the solid turns liquid. For the molecule `O=c1[nH]c2cc(OCCN3CCC(Cc4ccccc4)CC3)ccc2o1`, the melting point is 176 to 177 °C.

The molecule `COC1OCC2C(=O)C3CCCCC3CC12` (configuration not stated) yielded a melting point of 78 to 79 °C.

Regarding `COc1cc(Cl)ccc1C(Nc1ccc(F)c2nc(C)ncc12)C(O)(C=C(C)C)C(F)(F)F` (configuration not stated), the melting point stood at 118 °C.

Turning to `O=C(O)COc1ccc2c(=O)c3cc(Cl)ccc3oc2c1Cl`, the melting point fell in the range of 262 to 263 °C.

In turn, `CN(C)C=C(C#N)C(=O)Nc1ccccc1-n1cccc1` came in with a melting point of 167 to 169 °C.

For `CC12C=CCC=C1CCC1C2C(O)CC2(C)C(CCO)=CCC12` (configuration not stated), the melting point lay in the range of 213 to 215 °C.

The molecule `O=C(O)c1cccc(CN2CCC(c3cn(Cc4cccs4)c4ccccc34)CC2)c1` returned a melting point of 228 to 229 °C.

The molecule `COc1ccc(CNc2nc(N3CCC(C(=O)O)CC3)nc3sc(C(F)(F)F)cc23)cc1OC` showed a melting point of 203 °C.

`COc1ccc(-c2cc3c(s2)c(=O)c(SC)cn3C)cc1` returned a melting point of 182 to 184 °C.

`CSc1nc(C(C)(C)C)nn1C(=O)N(C)C`: the melting point was 51 to 53 °C.

Consider `N#Cc1ccc(NC(=O)CCc2ccc(O)cc2)cc1`, for which the melting point fell in the range of 169 to 172 °C.

`O=Cc1ccc(-c2cnn(-c3ccc(OC(F)(F)F)cc3)c2)cc1` showed a melting point of 107 to 109 °C.

In turn, `CCCCCCn1c(=O)n(C)c(=O)c2cnn(C)c21` came in with a melting point of 106 to 107 °C.

Molecule `CCOP(=S)(OCC)Oc1c(C(=O)c2ccccc2Cl)c(C)nn1C` yielded a melting point of 71 to 74 °C.

`Brc1cnc(Br)c2ccccc12` displayed a melting point of 95 to 96 °C.

Take `O=[N+]([O-])c1c(O)nc(N2CCSCC2)nc1O`: the melting point fell in the range of 220 to 223 °C.

As to `CCN(CC)CC(O)Cn1cc(-c2ccccc2)c2ccccc2c1=O` (configuration not stated), the melting point worked out at 106 °C.

Regarding `c1cncc(-c2cc3ccccc3[nH]2)c1`, the melting point lay within 176 to 177 °C.

Molecule `Oc1ncc(-c2ccccc2)cn1` yielded a melting point of 239 to 241 °C.

On to `CC(=O)NCc1ccc(Nc2nccc(-c3sc(-c4cccnc4)nc3C)n2)cc1`, for which the melting point lay in the range of 199 to 201 °C.

Regarding `O=Cc1c[nH]c2cc(C(=O)NCC3CCCC3)ccc12`, the melting point fell in the range of 224 to 225 °C.

`CC1C(=O)N(CC(=O)CCc2ccccc2)C1S(=O)Cc1ccccc1` (configuration not stated) displayed a melting point of 87 to 94 °C.

The molecule `c1ccc(-c2nc(N3CCN(c4ccccn4)CC3)c3ccccc3n2)cc1` came in with a melting point of 164 to 166 °C.

Turning to `COc1ccn2nc(SCc3ccccc3)nc2n1`, the melting point fell in the range of 126 to 128 °C.

`CCOC(=O)C1=C(C(F)(F)F)Nc2n[nH]cc2C1c1ccccc1OC` (configuration not stated) came in with a melting point of 144 to 146 °C.

As to `CCOC(=O)Cc1cccc2c(-c3ccccc3)onc12`, the melting point is 97 to 98 °C.

With `Cc1cc2c(cc1C)SC(CCCBr)C(=O)N2` (configuration not stated), the melting point was in the range of 151 to 153 °C.

`O=C(O)COc1cc(Cl)ccc1C(=O)NCCN1CCN(Cc2ccc(Cl)c(Cl)c2)CC1` came in with a melting point of 118 to 120 °C.

On to `COc1cc2c(cc1OC)S(=O)c1ccc(Cl)cc1C(N1CCN(C)CC1)C2` (configuration not stated), for which the melting point was in the range of 178 to 179 °C.

In the case of `COC(=O)C1Oc2ccccc2C(C)c2cc(Cl)ccc2O1` (configuration not stated), the melting point was 124 to 136 °C.

`COc1ccc2c(Cl)c(C(=O)Cl)sc2c1Cl` had a melting point of 174 to 175 °C.

Turning to `CCC1CC2C3CCC4=CC(=O)CCC4C3CCC2(C)C1OC(=O)CCl` (configuration not stated), the melting point lay within 135 to 136 °C.

Turning to `O=C(O)CCc1ccc(O[C@H]2CCc3ccccc32)cc1`, the melting point lay within 112 to 113 °C.

Take `COc1cc2c(cc1F)C(=Cc1ccc(S(C)=O)cc1)C(C)=C2CC(=O)O` (configuration not stated): the melting point is 190 to 193 °C.

For the molecule `Cc1[nH]n(Cc2ccc(C(N)=O)cc2)c2nc(-c3ccncc3)nc(=O)c1-2`, the melting point is over 300 °C.

With `COc1c(C)cc(NC(C)=O)c(Br)c1C`, the melting point lay in the range of 152 to 153 °C.

For the molecule `Cn1cnc2ccc(N/C(=C3\C(=O)Nc4ccccc43)c3ccccc3)cc21`, the melting point is 163 to 165 °C.

On to `C#CCOC(=O)N(I)C(C)C(=O)O` (configuration not stated), for which the melting point fell in the range of 95 to 99 °C.

In turn, `Cn1c2c(c(=O)[nH]c1=O)CCC2` came in with a melting point of 250 to 251 °C.

In turn, `Cc1c(-c2ccccc2)nc2cc(Cl)ccc2c1C(=O)N[C@@H](C)C1CCCCC1` gave a melting point of 204 to 207 °C.

Molecule `O=C(CCc1ccc(Cl)cc1)Cn1ccnc1` returned a melting point of 172 to 174 °C.

For `CN(CCN(C)c1ccnc2c(NC(=O)c3c(Cl)cccc3Cl)cccc12)C(=O)c1cccnc1`, the melting point lay within 195 to 203 °C.

In turn, `CC(C)Oc1c(-c2ccc(S(C)(=O)=O)cc2)cnn(CC(F)(F)F)c1=O` came in with a melting point of 152 to 153 °C.

In the case of `Cc1cc2n(C)c(=O)c3cnc(Cl)cc3n2n1`, the melting point was determined as 254 °C.

In turn, `Cc1cn(-c2nccc3ccccc23)cc1C(=O)O` displayed a melting point of 245 °C.

As for `Cc1cc(C2=C(C=CC3CC(O)CC(=O)O3)C(C)(C)CC(O)C2)ccc1F` (configuration not stated), the melting point lay in the range of 77 to 79 °C.

The molecule `Cc1cc2c(cc1C(F)(F)F)NCC2` yielded a melting point of 43 to 44 °C.

Turning to `CC(C)(C)OC(=O)N1CCC(CBr)CC1`, the melting point was 48 to 50 °C.

The molecule `COc1cccc(-n2c(=O)n(OCc3ccccc3)c(=O)c3cc(F)c(F)cc32)c1` returned a melting point of 157 to 158 °C.

`COc1ccc2c(c1)C(OC(C)C)=C(C(N)=O)S2=O` (configuration not stated) gave a melting point of 168 to 170 °C.

On to `Nc1c(Cl)cc(C(O)CNCCCCCOCCCc2ccc(C(=O)O)o2)cc1Cl` (configuration not stated), for which the melting point is 89 to 91 °C.

On to `COc1cc2c3c(c1O)CN(C)CC3c1ccccc1CC2` (configuration not stated), for which the melting point fell in the range of 173 to 174 °C.

Molecule `CC(=O)N(C)c1cccc(-c2ccnc3c(C#N)cnn23)c1` showed a melting point of 195 to 197 °C.

In turn, `COc1ccc(S(=O)(=O)Oc2cccc(OS(=O)(=O)c3ccc(OC)cc3)c2)cc1` displayed a melting point of 81 to 84 °C.

As for `CC(=O)OC1CSC(Oc2ccc(-c3cc4ccccc4o3)nc2)C(OC(C)=O)C1OC(C)=O` (configuration not stated), the melting point was 179 °C.

Turning to `CC1CC=C(Nc2ccccc2)c2ncc(C(=O)O)c(=O)n21` (configuration not stated), the melting point lay within 160 to 162 °C.

Turning to `Oc1ccc2c(C3CCCCC3)nsc2c1`, the melting point was found to be 190 °C.

In turn, `COc1ccccc1CP(C)(=O)C1CCCCC1` (configuration not stated) registered a melting point of 108 to 110 °C.

Turning to `CC(=O)N(C)c1cccc(C2=CCNc3c(C#N)cnn32)c1`, the melting point was 114 to 120 °C.

In turn, `O=C1CCC(c2c(-c3ccccc3)nn3ccccc23)=NN1` displayed a melting point of 187 to 189 °C.

Molecule `CC(C)Cn1c(=O)n(C)c(=O)c2c(-c3ccccc3F)n(Cc3csc4ccccc34)nc21` gave a melting point of 55 to 57 °C.

Molecule `CCCN1C(=O)N2C[C@@H](Cc3ccccc3)N=C2c2c1nc(SC)n2COC` displayed a melting point of 110 to 112 °C.

Take `CCc1ccccc1N(C=C(C#N)C#N)N=C(C#N)C#N`: the melting point fell in the range of 172 to 174 °C.

`COC(=O)c1ccc(-c2nnc3n2-c2cccnc2Nc2ccccc2-3)cc1` returned a melting point of over 300 °C.

The molecule `CN(C)c1ccc(-n2c(N)nc3ccccc32)cc1-c1ccco1` had a melting point of 208 to 210 °C.

Regarding `CCCc1c(OCCCCCC(=O)c2ccc(OC)c(OC)c2)ccc(C(=O)O)c1O`, the melting point lay in the range of 114 to 117 °C.

In the case of `CCCCS(=O)(=O)N(C(=O)OC(C)(C)C)c1cc(OC[C@@H]2CO2)ccc1OCc1ccccc1`, the melting point lay within 87 to 89 °C.

Take `O=C1NC(=Cc2c(Cl)cccc2Cl)C(=O)C1=NO`: the melting point was 232 °C.

In turn, `O=C1CCC2(CC3CCC2CC3)C(=O)N1` (configuration not stated) yielded a melting point of 183 to 184 °C.

For `CCC(C(=O)O)N(C(=O)c1cn(-c2cccc(C(F)(F)F)c2)nc1C)c1ccc(OCC(C)(C)C)c(C#N)c1` (configuration not stated), the melting point is 156 to 158 °C.

The molecule `O=C([C@H]1CCCN1C(=O)Nc1ccc2ccccc2c1)N1CCc2c([nH]c3ccccc23)C1` returned a melting point of 152 to 155 °C.

Consider `Cc1nc(-n2ccc(O)cc2=O)sc1C(=O)NCc1cccc(F)c1`, for which the melting point fell in the range of 250 to 252 °C.

Molecule `COc1cc(C)ccc1S(=O)(=O)O` gave a melting point of 92 to 94 °C.

The molecule `Cc1nn(-c2ccc(C#N)c(Cl)c2)c(C)c1Cc1ccc(C(=O)N2CCC(O)CC2)cc1` gave a melting point of 153 to 154 °C.

Consider `CCC(=O)Oc1cc(-c2nc3cc(C(=O)O)ccc3oc2=O)cc([N+](=O)[O-])c1OC(=O)CC`, for which the melting point lay within 192 to 194 °C.

Turning to `CCCCCCC(C)(C)c1ccc(C2=CC(O)CCC2)c(O)c1` (configuration not stated), the melting point lay in the range of 87 to 88 °C.

In turn, `Nc1ccc(Nc2ccc(S(=O)(=O)CCO)cc2[N+](=O)[O-])cc1S(=O)(=O)O` displayed a melting point of 204 °C.

On to `COc1ccc2c(ccc3nc(C(=O)O)cn32)c1`, for which the melting point lay in the range of 265 to 266 °C.

Molecule `COc1cc(NC(=O)C#Cc2ccc(C(F)(F)F)cc2Cl)ccc1OCCN1CC(C)CC(C)C1` (configuration not stated) showed a melting point of 196 to 201 °C.

Take `O=C(O)c1cnc2c3ccccc3ncn2c1=O`: the melting point is over 270 °C.

`O=C(O)c1cc(S(=O)(=O)O)c2cccnc2c1O` registered a melting point of 289 to 291 °C.

The molecule `COC[C@H]1CN(c2ccc(OCCC3(O)CCCCC3)cc2)C(=O)O1` came in with a melting point of 87 °C.

On to `CCCCCCCCCCOc1cc(OCCCCCCCCCC)cc(C(=O)C(=O)OC)c1`, for which the melting point lay in the range of 49 to 50 °C.

Molecule `COc1ccc(Cn2c(=O)c3ccccc3n(CCCCCCl)c2=O)cc1` displayed a melting point of 110 to 111 °C.

As for `CC(C)(C)c1cc(CCc2ccccc2NC(=O)NCC(C)(C)c2ccccc2F)cc(C(C)(C)C)c1O`, the melting point lay within 182 to 183 °C.

With `COc1cc2c(cc1C)CCN=C2C1(C2C=CCCC2)CCC1` (configuration not stated), the melting point was in the range of 70 to 73 °C.

Consider `COc1ccc(-c2nn(CC3CC3)c(=O)cc2-c2ccncc2)cc1`, for which the melting point lay within 128 to 130 °C.

Consider `O=C(Nc1ccccc1O)c1cccnc1Cl`, for which the melting point was 145 to 146 °C.

As for `CCCCCCCCC#CCC#CCC#CCSCC(=O)NCC`, the melting point worked out at 59 °C.

The molecule `CCOC(=O)Cc1ccc(NC(=O)C(COc2ccccc2)NS(=O)(=O)c2ccc(Br)cc2)cc1` (racemic) registered a melting point of 150 to 153 °C.

Take `Cc1ccc(S(=O)(=O)NC(=O)C2C(=O)CC(CC(C)C)CC2=O)cc1` (configuration not stated): the melting point lay within 128 to 130 °C.

`Cc1cc(C#N)c(Nc2ccccc2[N+](=O)[O-])s1` showed a melting point of 99 to 102 °C.

The record behind these values is a melting point compilation (Tetko et al.; mined from patent text by program, amines drawn as free bases though some values may be those of a salt).
